Columns and labels:
Assay in all cases: Cell viability drug screen, 12-point dose-response AUC
Type in all cases: cell-based, human
FU97 = system: FU97; set-up: Average Area Under the Viability Curve (AUC), AUC norm value: scale not given here; conditions: FU97 cells; 72 hours
Method: (§1) Cells cultured for cell-based drug assay were inoculated into a 96-well white optical plate (Corning) at 5×10^3 cells per well. After 24 hours after inoculation, a 2.5 MJT (primary screen) or a half-log 12-serial diluent (secondary screen) of the pharmacological compound contained in DMSO is added to the cells with a robot using a BioMek FXp liquid processor (Beckman) to add to the cells at 50 mM. The final drug concentration in the 5 ns range and the DMSO specification control (0.5%) were calculated. The cells were then further incubated at 37° C. in a 5% CO2 incubator for 72 hours prior to measuring cell viability using the extra-GLO assay kit (Promega). The luminescent properties were measured after 15 min incubation at room temperature using a plate stacker equipped with a plate stacker. The normalized viability for the DMSO-based control was measured to generate a cell line-specific 12-point dose-response curve for each pharmacological compound, and then the area under the curve (AUC) was calculated using a trapezoidal method.

SNU1750 = SNU1750 cells (SEM subtype); 72 hours
Method: (§2) An FDA-approved small-molecule pharmacological compound (#L1300) and an anticancer compound for research (#L2000) were purchased from Selecckchem and a 10 mM solution was prepared in DMSO. A total of 1,345 compounds were tested the cell viability of the seven EMT gastric cancer cell lines.
as §1, with “method. […] The results of the repeated experiments were averaged to generate AUC values for each cell line for each compound.” for “method.”

NCC59 = NCC59 cells; 72 hours
Method: as §2
as §1, with “method. […] The results of the repeated experiments were averaged to generate AUC values for each cell line for each compound.” for “method.”

SNU1 = SNU1 cells; 72 hours
Method: as §2
as §1, with “method. […] The results of the repeated experiments were averaged to generate AUC values for each cell line for each compound.” for “method.”

SNU601 = SNU601 cells; 72 hours
Method: as §2
as §1, with “method. […] The results of the repeated experiments were averaged to generate AUC values for each cell line for each compound.” for “method.”

MKN28 = MKN28 cells; 72 hours
Method: as §2
as §1, with “method. […] The results of the repeated experiments were averaged to generate AUC values for each cell line for each compound.” for “method.”

MKN1 = MKN1 cells; 72 hours
Method: as §2
as §1, with “method. […] The results of the repeated experiments were averaged to generate AUC values for each cell line for each compound.” for “method.”

NCC19 = NCC19 cells; 72 hours
Method: as §2
as §1, with “method. […] The results of the repeated experiments were averaged to generate AUC values for each cell line for each compound.” for “method.”

SNU719 = SNU719 cells; 72 hours
Method: as §2
as §1, with “method. […] The results of the repeated experiments were averaged to generate AUC values for each cell line for each compound.” for “method.”

NCC24 = NCC24 cells; 72 hours
Method: as §2
as §1, with “method. […] The results of the repeated experiments were averaged to generate AUC values for each cell line for each compound.” for “method.”

MKN74 = MKN74 cells; 72 hours
Method: as §2
as §1, with “method. […] The results of the repeated experiments were averaged to generate AUC values for each cell line for each compound.” for “method.”

YCC2 = YCC2 cells; 72 hours
Method: as §2
as §1, with “method. […] The results of the repeated experiments were averaged to generate AUC values for each cell line for each compound.” for “method.”

YCC3 = YCC3 cells; 72 hours
Method: as §2
as §1, with “method. […] The results of the repeated experiments were averaged to generate AUC values for each cell line for each compound.” for “method.”

KATO3 = KATO3 cells; 72 hours
Method: as §2
as §1, with “method. […] The results of the repeated experiments were averaged to generate AUC values for each cell line for each compound.” for “method.”

SK4 = SK4 cells (SEM subtype); 72 hours
Method: as §2
as §1, with “method. […] The results of the repeated experiments were averaged to generate AUC values for each cell line for each compound.” for “method.”

MKN45 = MKN45 cells (non-SEM subtype); 72 hours
Method: as §2
as §1, with “method. […] The results of the repeated experiments were averaged to generate AUC values for each cell line for each compound.” for “method.”

OCUM1 = OCUM1 cells; 72 hours
Method: as §2
as §1, with “method. […] The results of the repeated experiments were averaged to generate AUC values for each cell line for each compound.” for “method.”

SNU668 = SNU668 cells (SEM subtype); 72 hours
Method: as §2
as §1, with “method. […] The results of the repeated experiments were averaged to generate AUC values for each cell line for each compound.” for “method.”

Hs746T = Hs746T cells (SEM subtype); 72 hours
Method: as §2
as §1, with “method. […] The results of the repeated experiments were averaged to generate AUC values for each cell line for each compound.” for “method.”

SNU484 = SNU484 cells (SEM subtype); 72 hours
Method: as §2
as §1, with “method. […] The results of the repeated experiments were averaged to generate AUC values for each cell line for each compound.” for “method.”

SNU16 = SNU16 cells; 72 hours
Method: as §2
as §1, with “method. […] The results of the repeated experiments were averaged to generate AUC values for each cell line for each compound.” for “method.”

SNU620 = SNU620 cells; 72 hours
Method: as §2
as §1, with “method. […] The results of the repeated experiments were averaged to generate AUC values for each cell line for each compound.” for “method.”

SNU216 = SNU216 cells (non-SEM subtype); 72 hours
Method: as §2
as §1, with “method. […] The results of the repeated experiments were averaged to generate AUC values for each cell line for each compound.” for “method.”

NCI_N87 = NCI_N87 cells; 72 hours
Method: as §2
as §1, with “method. […] The results of the repeated experiments were averaged to generate AUC values for each cell line for each compound.” for “method.”

AGS = AGS cells (non-SEM subtype); 72 hours
Method: as §2
as §1, with “method. […] The results of the repeated experiments were averaged to generate AUC values for each cell line for each compound.” for “method.”

SNU1967 = SNU1967 cells; 72 hours
Method: as §2
as §1, with “method. […] The results of the repeated experiments were averaged to generate AUC values for each cell line for each compound.” for “method.”

NCC20 = NCC20 cells; 72 hours
Method: as §2
as §1, with “method. […] The results of the repeated experiments were averaged to generate AUC values for each cell line for each compound.” for “method.”

SNU638 = SNU638 cells; 72 hours
Method: as §2
as §1, with “method. […] The results of the repeated experiments were averaged to generate AUC values for each cell line for each compound.” for “method.”

YCC11 = YCC11 cells (SEM subtype); 72 hours
Method: as §2
as §1, with “method. […] The results of the repeated experiments were averaged to generate AUC values for each cell line for each compound.” for “method.”

For `C/C=C(\C)C(=O)N[C@@H](c1ccccc1)[C@@H](O)C(=O)O[C@H]1C[C@@]2(O)[C@@H](OC(=O)c3ccccc3)[C@@H]3[C@]4(OC(C)=O)CO[C@@H]4C[C@H](O)[C@@]3(C)C(=O)[C@H](OC(C)=O)C(=C1C)C2(C)C` [Cephalomannine], the “Average Area Under the Viability Curve (AUC), AUC norm value” (shortened to “Average Area Under the Viability Curve”) (FU97) was 0.4107, the “Average Area Under the Viability Curve” value (SNU1750) was 1.009 and the “Average Area Under the Viability Curve” value (NCC59) was 2.734. For the same molecule, the “Average Area Under the Viability Curve” value (SNU1) was −2.056, the “Average Area Under the Viability Curve” value (SNU601) was 0.2225 and the “Average Area Under the Viability Curve” value (MKN28) was −1.697. For the same molecule, the “Average Area Under the Viability Curve” value (MKN1) was −1.486, the “Average Area Under the Viability Curve” value (NCC19) was 1.7094 and the “Average Area Under the Viability Curve” value (SNU719) was 4.893. For the same molecule, the “Average Area Under the Viability Curve” value (NCC24) was −0.7716, the “Average Area Under the Viability Curve” value (MKN74) was 0.3528 and the “Average Area Under the Viability Curve” value (YCC2) was 0.3838. The “Average Area Under the Viability Curve” value (YCC3) was 2.809, the “Average Area Under the Viability Curve” value (KATO3) was 4.179 and the “Average Area Under the Viability Curve” value (SK4) was −1.144. For the same molecule, the “Average Area Under the Viability Curve” value (MKN45) was 0, the “Average Area Under the Viability Curve” value (OCUM1) was 1.3887 and the “Average Area Under the Viability Curve” value (SNU668) was −0.1911. The “Average Area Under the Viability Curve” value (Hs746T) was 0.449, the “Average Area Under the Viability Curve” value (SNU484) was −0.7051 and the “Average Area Under the Viability Curve” value (SNU16) was −1.737. For the same molecule, the “Average Area Under the Viability Curve” value (SNU620) was −2.403, the “Average Area Under the Viability Curve” value (SNU216) was 1.8612 and the “Average Area Under the Viability Curve” value (NCI_N87) was −1.26. For the same molecule, the “Average Area Under the Viability Curve” value (AGS) was −2.055, the “Average Area Under the Viability Curve” value (SNU1967) was 0.6525 and the “Average Area Under the Viability Curve” value (NCC20) was −0.5011. For the same molecule, the “Average Area Under the Viability Curve” value (SNU638) was −0.03958 and the “Average Area Under the Viability Curve” value (YCC11) was −1.013.

— US20250129430A1, “HIGH ATP-AFFINITY PROTEIN AS THERAPEUTIC TARGET FOR INTRACTABLE CANCER MOLECULAR SUBTYPES AND INHIBITOR THEREOF” (VeraVerse Co., Ltd., priority 2021, published 2025)
